Laboratory results as given in article PMC6906431, “Selective small molecule PARG inhibitor causes replication fork stalling and cancer cell death” (Nature Communications, 2019).

Key:
[1] = tested on: MDA-MB-231 PARG-KD cells; test: Sulforhodamine B (SRB) cytotoxicity assay; type: cell-based, human
Summary of the method: (§1)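 Stable scramble-shRNA control and shPARG knockdown MDA-MB-231 cells, and MRC-5 cells, exposed to increasing compound concentrations for growth-inhibitory IC50 determination. Data normalized to 100% survival at the lowest inhibitor concentration; equivalent DMSO as negative control.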

[2] = tested on: MDA-MB-231 control cells (scramble shRNA); test: Sulforhodamine B (SRB) cytotoxicity assay; type: cell-based, human; conditions: 72 h
Summary of the method: as §1

SMILES: Cn1c(=S)c2[nH]c(SCCN3CCOCC3)nc2n(C)c1=O [JA2131]
- IC50 in PARG-depleted cells relative to control cells [1]: ~10 fold
- fraction of PARG-KD cells responding to the PARGi [1]: 50%
- IC50 ([1]; Homo sapiens, MDA-MB-231, growth inhibitory, 72 h): 34.4 ± 13.3 µM
- Viability ([1]; log concentration μM 0.193959, 72 h): 105.597%
- Viability ([1]; log concentration μM 0.49485, 72 h): 101.727%
- Viability ([1]; log concentration μM 0.79588, 72 h): 99.9152%
- Viability ([1]; log concentration μM 1.09691, 72 h): 97.9571%
- Viability ([1]; log concentration μM 2, 72 h): 52.7893%
- Viability ([1]; log concentration μM 2.30103, 72 h): 51.5972%
- Viability ([1]; log concentration μM -0.10735, 72 h): 104.639%
- Viability ([1]; log concentration μM -0.40782, 72 h): 106.229%
- Viability ([1]; log concentration μM -0.70997, 72 h): 102.262%
- Viability ([1]; log concentration μM -1.00877, 72 h): 100%
- IC50 ([2]; Homo sapiens, MDA-MB-231, growth inhibitory): 3.89 ± 0.88 µM
- Viability ([2]; log concentration μM 0.193959): 75.9862%
- Viability ([2]; log concentration μM 0.49485): 65.9005%
- Viability ([2]; log concentration μM 0.79588): 45.256%
- Viability ([2]; log concentration μM 1.09691): 30.1241%
- Viability ([2]; log concentration μM 1.69897): 14.974%
- Viability ([2]; log concentration μM 2): 13.0697%
- Viability ([2]; log concentration μM 2.30103): 16.4202%
- Viability ([2]; log concentration μM -0.10735): 96.2538%
- Viability ([2]; log concentration μM -0.40782): 101.482%
- Viability ([2]; log concentration μM -0.70997): 100%
- Viability ([2]; log concentration μM -1.00877): 100%
